From patent US20250017921A1, “PHARMACEUTICAL COMBINATION AND TUMOR TREATMENT” (IDEAYA Biosciences Inc., priority 2020, published 2025)

Legend:
[1] = tested on: cMET, MAPK, PI3K and PKC signaling pathways in MM28 cells; test: Pharmacodynamic western blot, MM28 cells; format: cell-based, human
Description: (§1) For all experiments, cells were seeded 24 h before treatment at 2.5×10^6 cells in 10 cm^2 tissue culture plates in 10% RPMI media. For IDE196-HGF combinations, cells were treated with the IDE196 and HGF combinations in 2% RPMI media for 2 hrs according to Table 3. For IDE196-MET inhibitor experiments, 24 h after seeding, the media was replaced with the appropriate inhibitor combinations in 2% RPMI media in the presence of 1.23-3.7 ng/ml HGF for 2 h, according to Table 4.
(§2) For all experiments, cells were washed with ice cold PBS and protein lysates were prepared by lysing cells in a RIPA buffer containing protease and phosphatase inhibitors. Protein samples (15ug/well) were separated on 4-20% Bis-Tris SDS gels and electroblotted to nitrocellulose membranes using iBlot (Invitrogen). The membranes were incubated for 1b in Superblock buffer at RT, followed by overnight incubation with primary antibody at 4° C. The primary antibodies Phospho-Met (Tyr1234/1235) (3077S), cMET (3148S), Phospho-Akt (Ser473) (4060S), Akt (pan) (2920S), Phospho-MARCKS (Ser159/163) (11992S), MARCKS (5607S), PKCδ (9616S), Phospho-p44/42 MAPK (ERK1/2) (Thr202/Tyr204) (4377S), pRAS40 were obtained from Cell Signaling. Total ERK (ab184699) and PKC delta (phospho S299) (ab133456) antibodies were from Abcam. After three washes in PBST, the membrane was incubated with HRP-conjugated secondary antibody for 1 h at RT, washed thrice in PBST, and detected using enhanced chemiluminescence (Biorad Chemidoc XRS).

[2] = tested on: cMET, MAPK, PI3K and PKC signaling pathways in MEL-202 cells; test: Pharmacodynamic western blot, MEL-202 cells; format: cell-based, human
Description: as §1, §2

[3] = tested on: cMET, MAPK, PI3K and PKC signaling pathways in 92.1 cells; test: Pharmacodynamic western blot, 92.1 cells; format: cell-based, human
Description: as §1, §2

MEL-202 cells = test: Cell Titer-Glo cell viability, MEL-202 cells; format: cell-based, human
Description: (§3) Luminescence was read using a plate reader (TECAN). Average luminescence of cells treated with DMSO was set to 100% and the % viable cells were calculated accordingly. Synergy/antagonism was analyzed using Combenefit software. […] Interactions between various combinations were evaluated using Bliss, HSA, and Loewe synergy/antagonism models. […] Cell viability was measured by CTG three days/five days after treatment.
(§4) After 24 hrs, the media was changed to 2% FBS/RPMI media. Further, the cell lines were screened for sensitivity to the PKC inhibitor, IDE196 alone or in combination with Hepatocyte growth factor (HGF) (Peprotech); at increasing doses according to Table 1 using a TECAN digital dispenser.

[4] = patient; cited from earlier work
92.1 cells = test: Cell Titer-Glo cell viability, 92.1 cells; format: cell-based, human
Description: as §3, §4

MM28 cells = test: Cell Titer-Glo cell viability, MM28 cells; format: cell-based, human
Description: as §3, §4

[5] = presence of HGF, crizotinib alone or in combination with IDE196
[6] = presence of HGF, IDE196 alone and in combination with crizotinib
[7] = presence of HGF, IDE196 alone, up to highest concentrations
[8] = at or above 3.7 ng/mL HGF, all concentrations of IDE196, HSA, Loewe, Bliss
[9] = dose-dependent, not inhibited by addition of IDE196

C[C@@H](Oc1cc(-c2cnn(C3CCNCC3)c2)cnc1N)c1c(Cl)ccc(F)c1Cl [crizotinib, reference compound]
HGF induced pMET, pERK, pAKT and pPRAS40 levels [1, 5]: strongly inhibited | HGF induced pMET, pERK, pAKT and pPRAS40 levels [2, 5]: strongly inhibited | pERK, pAKT and pPRAS40 ([3]; presence of HGF, higher concentrations of crizotinib alone or in combination with IDE196): modest decrease

CNC(=O)c1ccc(-c2cnc3ncc(Cc4ccc5ncccc5c4)n3n2)cc1F [capmatinib, reference compound]
synergy with IDE196 on cell viability (MEL-202 cells; 1.23 ng/ml HGF, all doses of capmatinib, starting at 80 nM IDE196): high synergy | half-life [4]: about 6.5 hours | synergy with IDE196 on cell viability (92.1 cells; 1.23 ng/ml HGF, capmatinib, any dose combination): did not synergize | synergy with IDE196 on cell viability (MM28 cells; 1.23 ng/ml HGF, capmatinib, all the doses): high synergy

CC1(N)CCN(c2cccnc2NC(=O)c2nc(-c3ncccc3C(F)(F)F)cnc2N)CC1 [IDE196, 3-amino-N-(3-(4-amino-4-methylpiperidin-1-yl)pyridin-2-yl)-6-(3-(trifluoromethyl)pyridin-2-yl)pyrazine-2-carboxamide]
EC50 (MEL-202 cells; Homo sapiens, Mel202, 72 h, IDE196 alone, day 3, N=3, read-out: inhibition of cell viability EC50): 0.25 µM | pMARCKS and pPKC-delta ([1]; IDE196 treatment alone): dose-dependent decrease | dose at which pERK was inhibited ([1]; absence of HGF, 2 h): above 400 nM | effect on pAKT or pPRAS40 ([1]; presence of HGF, IDE196 alone): no effect | pMARCKS or pPKCδ [1, 6]: dose-dependent decrease | pERK inhibition [1, 7]: did not inhibit | EC50 (92.1 cells; Homo sapiens, 72 h, IDE196 alone, day 3, N=3, read-out: inhibition of cell viability EC50): 0.113 µM | pMARCKS and pPKC-delta ([2]; IDE196 treatment alone): dose-dependent decrease | dose at which pERK was inhibited ([2]; absence of HGF, 2 h): above 400 nM | effect on pAKT or pPRAS40 ([2]; presence of HGF, IDE196 alone): no effect | pMARCKS or pPKCδ [2, 6]: dose-dependent decrease | pERK inhibition [2, 7]: did not inhibit | EC50 (MM28 cells; Homo sapiens, 120 h, IDE196 alone, day 5, N=3, read-out: inhibition of cell viability EC50): 0.342 µM | pMARCKS and pPKC-delta ([3]; IDE196 treatment alone): dose-dependent decrease | dose at which pERK was inhibited ([3]; absence of HGF, 2 h): above 400 nM | effect on pAKT or pPRAS40 ([3]; presence of HGF, IDE196 alone): no effect | pMARCKS or pPKCδ [3, 6]: dose-dependent decrease | pERK inhibition [3, 7]: did not inhibit

HGF: Hepatocyte growth factor (Peprotech), the endogenous ligand for the extracellular cMET receptor
cell viability on exposure to exogeneous HGF (MEL-202 cells; HGF alone): increased cell viability significantly | antagonism of IDE196 induced growth inhibition by HGF (MEL-202 cells; [8]): high antagonism | pERK (MAPK signaling), pAKT and pPRAS40 (PI3K signaling) on addition of HGF [1, 9]: induced | antagonism of IDE196 induced growth inhibition by HGF (92.1 cells; 1.23 to 33.33 ng/ml HGF, HSA, Loewe, Bliss): modest antagonism | cell viability on exposure to exogeneous HGF (92.1 cells; HGF alone): not | pERK (MAPK signaling), pAKT and pPRAS40 (PI3K signaling) on addition of HGF [2, 9]: induced | cell viability on exposure to exogeneous HGF (MM28 cells; HGF alone): increased cell viability significantly | antagonism of IDE196 induced growth inhibition by HGF (MM28 cells; [8]): high antagonism | pERK (MAPK signaling), pAKT and pPRAS40 (PI3K signaling) on addition of HGF [3, 9]: induced
